Counter-ions that a name gives are not always drawn.
Key:
TTE seizure = assay: Threshold tonic extension (TTE) test, mouse, i.p.; format: in vivo; settings: mouse, 100 mg/kg
Description: The hydrazones, hydrazines and semicarbazones derived from pyridyl ketones and the resulting orally effective anticonvulsant compositions of this invention are useful in the treatment of convulsive disorders. […] A series of hydrazones, hydrazines and semicarbazones derived from pyridyl ketones of this invention has been evaluated for anticonvulsant activity by the intraperitoneal (i.p.) and by the oral (p.o.) route using two standard seizure models in the mouse and in the rat, the maximal electroshock seizure (MES) test and the subcutaneous pentylenetetrazole (Metrazole) seizure threshold (scMet) test. […] In addition, the compounds are evaluated in a new model, the threshold tonic extension (TTE) model. […] Thus active compounds that may be missed in the MES and scMet tests in the mouse, i.p., can be detected in the TTE test.
The Threshold Tonic Extension (TTE) Test: The TTE test (Piredda et al., 1985) is a clinically nonselective, electroconvulsive seizure model that identifies compounds that raise seizure threshold as well as those that prevent seizure spread. […] The test is similar to the MES screen but uses a lower level of electrical current. The lower current makes the TTE test more sensitive but less discriminate than the MES screen. This ability makes the model attractive because it allows us to identify compounds that may be missed by our standard identification screen.
Twenty mice are pretreated intraperitoneally with 100 mg/kg of the test substance. At several time intervals (1/4, 1/2, 1, 2, and 4 hours) post treatment with the test drug, four mice at each time point are challenged with 12.5 mA of electrical current for 0.2 seconds via corneal electrodes. This produces a TTE seizure in the animals (Woodbury and Davenport, 1952).
For each time interval results are expressed as a ratio of the number of animals protected over the number tested. […] The positives may represent compounds acting by novel mechanisms.

[1] = tested on: maximal electroshock seizures; assay: Maximal electroshock seizure (MES) test, mouse, i.p.; format: in vivo, mouse (male Carworth Farms #1); settings: for ASP Group Classification, MES Test: mouse, 30, 100 and 300 mg/kg
Description: The hydrazones, hydrazines and semicarbazones derived from pyridyl ketones and the resulting orally effective anticonvulsant compositions of this invention are useful in the treatment of convulsive disorders. […] A series of hydrazones, hydrazines and semicarbazones derived from pyridyl ketones of this invention has been evaluated for anticonvulsant activity by the intraperitoneal (i.p.) and by the oral (p.o.) route using two standard seizure models in the mouse and in the rat, the maximal electroshock seizure (MES) test and the subcutaneous pentylenetetrazole (Metrazole) seizure threshold (scMet) test. […] In addition, the compounds are evaluated in a new model, the threshold tonic extension (TTE) model. […] Thus active compounds that may be missed in the MES and […] the mouse, i.p., can be detected in the TTE test. Based on the screening results, the compounds are placed in one of three categories. […] Class II compounds show anticonvulsant activity at doses greater than 100 mg/kg or show activity at 100 mg/kg which is not reinforced by similar activity at 300 mg/kg. […] The Class I compounds are those which are most promising as anticonvulsants. […] In mice. i.p.: All compounds are emulsified in 0.5% methylcellulose. The solvent has been tested for anticonvulsant and toxic effects and found to introduce no significant bias into the testing of anticonvulsant activity. The compounds are administered intraperitoneally in a volume of 0.01 ml/gm to male Carworth Farms #1 mice weighing about 20 gm. All compounds are tested at least at three dose levels (30, 100 and 300 mg/kg) at 30 minutes and 4 hours after their administration. The Maximal Electroshock Seizure Test (MES): Maximal electroshock seizures are elicited with a 60 Hz alternating current of 50 mA intensity in mice and about 150 mA intensity in rats (5-7 times that necessary to elicit minimal electroshock seizures), delivered for 0.2 sec via corneal electrodes. A drop of 0.9% saline is instilled in the eye prior to application of the electrodes in order to […]. Abolition of the hind limb tonic extension component of the seizure is defined as protection and results are expressed as number of animals protected/number of animals tested. Anticonvulsant Quantification in Mice, i.p.: The ED50 values are determined in the MES, scMet and rotorod ataxia test.

[2] = tested on: maximal electroshock seizures; assay: Maximal electroshock seizure (MES) test, rat, p.o.; format: in vivo, rat (Sprague-Dawley); settings: for Class in the MES Test: Table 7, titled MES Test, Rat; for responders at 30 mg/kg: several time points over a 4 hour period, read-out: Percent Protection at 30 mg/kg, in the MES test
Description: The hydrazones, hydrazines and semicarbazones derived from pyridyl ketones and the resulting orally effective anticonvulsant compositions of this invention are useful in the treatment of convulsive disorders. […] A series of hydrazones, hydrazines and semicarbazones derived from pyridyl ketones of this invention has been evaluated for anticonvulsant activity by the intraperitoneal (i.p.) and by the oral (p.o.) route using two standard seizure models in the mouse and in the rat, the maximal electroshock seizure (MES) test and the subcutaneous pentylenetetrazole (Metrazole) seizure threshold (scMet) test. […] In addition, the compounds are evaluated in a new model, the threshold tonic extension (TTE) model. […] Thus active compounds that may be missed in the MES and […] the mouse, i.p., can be detected in the TTE test. The Maximal Electroshock Seizure Test (MES): Maximal electroshock seizures are elicited with a 60 Hz alternating current of 50 mA intensity in mice and about 150 mA intensity in rats (5-7 times that necessary to elicit minimal electroshock seizures), delivered for 0.2 sec via corneal electrodes. A drop of 0.9% saline is instilled in the eye prior to application of the electrodes in order to […]. Abolition of the hind limb tonic extension component of the seizure is defined as protection and results are expressed as number of animals protected/number of animals tested. […] This species will be the subject of the complete anticonvulsant quantification test evaluation as described above, but after oral (gavage) administration of the candidate compound.

in vivo = assay: in vivo; parameters: species or system mouse (male Carworth Farms #1); settings: mouse, ip
Method: Neurotoxicity is determined by the rotorod ataxia test in mice and by the positional sense test and gait and stance test in the rat.
Neurotoxicity is evaluated in mice by the rotorod ataxia test. The animal is placed on a wooden rod of 1 and 1/8" diameter rotating at 6 rpm. Normal mice can remain on a rod rotating at this speed indefinitely.
Anticonvulsant Quantification in Mice, i.p.: The ED50 values are determined in the MES, scMet and rotorod ataxia test.

## Clc1cccc(NN=C(c2ccccc2)c2ccncc2)c1 [Compound 11, Phenyl 4-pyridyl ketone 3-chlorophenylhydrazone]
TTE seizure
  ASP Group Classification, TTE Test: I (They demonstrate anticonvulsant activity in either the MES test or the scMet test, or both at doses of 100 mg/kg or 30 mg/kg without signs of neurological deficit and thus have an estimated protective index of greater than 1)
[1]
  ASP Group Classification, MES Test: III (Those failing to demonstrate anticonvulsant activity at doses up to 300 mg/kg are considered inactive)

## CC(Nc1cccc(Cl)c1)c1cccnc1 (centres unmarked) [AAP 3-Pyridyl CH3 3-Cl, reference compound]
[2]
  Class in the MES Test: II (show anticonvulsant activity at doses greater than 100 mg/kg or show activity at 100 mg/kg which is not reinforced by similar activity at 300 mg/kg)

## Clc1ccc(NN=C(c2ccccc2)c2ccncc2)cc1Cl [Compound 9, Phenyl 4-pyridyl ketone 3,4-dichlorophenylhydrazone]
TTE seizure
  ASP Group Classification, TTE Test: I (They demonstrate anticonvulsant activity in either the MES test or the scMet test, or both at doses of 100 mg/kg or 30 mg/kg without signs of neurological deficit and thus have an estimated protective index of greater than 1)
  TTE Test (Percent Protection): 25%
[1]
  ASP Group Classification, MES Test: III (Those failing to demonstrate anticonvulsant activity at doses up to 300 mg/kg are considered inactive)

## CCC(=NNc1ccc(Cl)c(Cl)c1)c1ccncc1 [Compound 7, Ethyl 4-pyridyl ketone 3,4-dichlorophenylhydrazone]
TTE seizure
  ASP Group Classification, TTE Test: I (They demonstrate anticonvulsant activity in either the MES test or the scMet test, or both at doses of 100 mg/kg or 30 mg/kg without signs of neurological deficit and thus have an estimated protective index of greater than 1)
  TTE Test (Percent Protection): 25%
[1]
  ASP Group Classification, MES Test: III (Those failing to demonstrate anticonvulsant activity at doses up to 300 mg/kg are considered inactive)

## CC(Nc1ccc(Cl)c(Cl)c1)c1ccncc1 (centres unmarked) [AAP 4-Pyridyl CH3 3,4-diCl, reference compound]
[2]; po, rat, Table 7, read-out: Anticonvulsant Efficacy (ED50, mg/kg) in the MES Test
  ED50: 29.7 mg/kg

## CC(=NNC(N)=O)c1ccncc1 [Compound 13, Methyl 4-pyridyl ketone semicarbazone]
[1]
  ASP Group Classification, MES Test: I (They demonstrate anticonvulsant activity in either the MES test or the scMet test, or both at doses of 100 mg/kg or 30 mg/kg without signs of neurological deficit and thus have an estimated protective index of greater than 1)

## NC(=O)NN=C(c1ccccc1)c1cccnc1 [Compound 16, Phenyl 3-pyridyl ketone semicarbazone]
In vivo
  TD50: 84.6 mg/kg
[2]; po, rat, 30 mg/kg
  responders at 30 mg/kg: 75 to 100%
[2]; rat, 30 mg/kg, Table 7
  protection at 30 mg/kg, MES Test: 75-100%
[1]; Mus musculus, ip, mice, Table 5
  ED50: 21.8 mg/kg
[1]; mice, Table 5
  P.I., TD50/ED50, MES: 3.87
[1]
  ASP Group Classification, MES Test: I (They demonstrate anticonvulsant activity in either the MES test or the scMet test, or both at doses of 100 mg/kg or 30 mg/kg without signs of neurological deficit and thus have an estimated protective index of greater than 1)

## Clc1ccc(NC(c2ccccc2)c2ccncc2)cc1 (centres unmarked) [AAP 4-Pyridyl Ph 4-Cl, reference compound]
[2]
  Class in the MES Test: III (Those failing to demonstrate anticonvulsant activity at doses up to 300 mg/kg are considered inactive)

## Clc1ccc(NN=C(c2ccccc2)c2ccncc2)cc1 [Compound 10, Phenyl 4-pyridyl ketone 4-chlorophenylhydrazone]
[2]
  Class in the MES Test: I (They demonstrate anticonvulsant activity in either the MES test or the scMet test, or both at doses of 100 mg/kg or 30 mg/kg without signs of neurological deficit and thus have an estimated protective index of greater than 1)
[1]
  ASP Group Classification, MES Test: I (They demonstrate anticonvulsant activity in either the MES test or the scMet test, or both at doses of 100 mg/kg or 30 mg/kg without signs of neurological deficit and thus have an estimated protective index of greater than 1)

## CC(NNc1ccc(Cl)c(Cl)c1)c1cccnc1 (centres unmarked) [Compound 12, 1-(3,4-dichlorophenyl)-2-[1-(3-pyridyl)]ethylhydrazine dihydrochloride]
[2]; po, rat, 30 mg/kg
  responders at 30 mg/kg: 25 to 75%
[1]
  ASP Group Classification, MES Test: I (They demonstrate anticonvulsant activity in either the MES test or the scMet test, or both at doses of 100 mg/kg or 30 mg/kg without signs of neurological deficit and thus have an estimated protective index of greater than 1)

## CC(=NNc1ccc(Cl)cc1)c1ccncc1 [Compound 2, Methyl 4-pyridyl ketone 4-chlorophenyl hydrazone]
[2]; po, rat, 30 mg/kg
  responders at 30 mg/kg: 50 to 75%
[1]
  ASP Group Classification, MES Test: I (They demonstrate anticonvulsant activity in either the MES test or the scMet test, or both at doses of 100 mg/kg or 30 mg/kg without signs of neurological deficit and thus have an estimated protective index of greater than 1)

## CC(Nc1ccc(Cl)cc1)c1cccnc1 (centres unmarked) [AAP 3-Pyridyl CH3 4-Cl, reference compound]
[2]; rat, 50 mg/kg, Table 7
  protection at 50 mg/kg, MES Test: 0-75%

## CC(=NNc1cccc(Cl)c1)c1cccnc1 [Compound 6, Methyl 3-pyridyl ketone 3-chlorophenylhydrazone]
[2]
  Class in the MES Test: I (They demonstrate anticonvulsant activity in either the MES test or the scMet test, or both at doses of 100 mg/kg or 30 mg/kg without signs of neurological deficit and thus have an estimated protective index of greater than 1)
[1]
  ASP Group Classification, MES Test: I (They demonstrate anticonvulsant activity in either the MES test or the scMet test, or both at doses of 100 mg/kg or 30 mg/kg without signs of neurological deficit and thus have an estimated protective index of greater than 1)

## CCC(=NNc1ccc(Cl)cc1)c1ccncc1 [Compound 8, Ethyl 4-pyridyl ketone 4-chlorophenylhydrazone]
[1]
  ASP Group Classification, MES Test: I (They demonstrate anticonvulsant activity in either the MES test or the scMet test, or both at doses of 100 mg/kg or 30 mg/kg without signs of neurological deficit and thus have an estimated protective index of greater than 1)

## CC(=NNC(N)=O)c1cccnc1 [Compound 14, Methyl 3-pyridyl ketone semicarbazone]
[1]
  ASP Group Classification, MES Test: II (show anticonvulsant activity at doses greater than 100 mg/kg or show activity at 100 mg/kg which is not reinforced by similar activity at 300 mg/kg)

Source: patent US5942527A, “Hydrazones, hydrazines, semicarbazones and thiosemicarbazones derived from pyridyl ketones as anticonvulsant drugs and excitatory amino acid antagonists” (K & K Biosciences, Inc., priority 1997, dated 1999)
